Measured values from DBAASP.
Values after ≈ are worked out from the molar mass of the structure shown. Values joined by “and” are separate entries in the source; they are usually repeats but may differ in a detail not shown here. Identical values can stand only once. Each block holds one molecule with its values, some of them ahead of it.

Key:
Experiment in all cases: ≥ marks a high value that may be exact or a test limit, other limits are often not marked, values filed in µg/mL are converted to µM
Bacillus megaterium Bm11 = test system: Bacillus megaterium Bm11
Candida albicans = test system: Candida albicans
Cryptococcus neoformans = test system: Cryptococcus neoformans
Enterococcus faecium = test system: Enterococcus faecium
[1] = test system: Escherichia coli ATCC 25922
Escherichia coli ML-35 = test system: Escherichia coli ML-35
[2] = test system: Escherichia coli O18:K1:H7 Bort
[3] = test system: Salmonella enterica subsp. enterica serovar Typhimurium ATCC 14028
[4] = test system: Serratia marcescens ATCC 8100
Serratia marcescens = test system: Serratia marcescens
[5] = test system: Staphylococcus aureus ATCC 25923
Staphylococcus aureus = test system: Staphylococcus aureus
[6] = test system: Staphylococcus epidermidis ATCC 12228
Streptococcus agalactiae = test system: Streptococcus agalactiae
Aureobasidium pullulans = test system: Aureobasidium pullulans
Bacillus megaterium = test system: Bacillus megaterium
[7] = test system: Bacillus subtilis ATCC 23857
[8] = test system: Candida albicans ATCC 10231
[9] = test system: Corynebacterium glutamicum ATCC 13032
Micrococcus luteus = test system: Micrococcus luteus
[10] = test system: Pseudomonas aeruginosa ATCC 27853
[11] = test system: Staphylococcus aureus ATCC 9144
[12] = test system: Bifidobacterium longum subsp. infantis
Escherichia coli = test system: Escherichia coli
Bacillus subtilis C971 = test system: Bacillus subtilis C971
[13] = test system: Corynebacterium xerosis C875
[14] = test system: Enterococcus faecalis C625
Escherichia coli DC2 = test system: Escherichia coli DC2
Escherichia coli UB1005 = test system: Escherichia coli UB1005
[15] = test system: Pseudomonas aeruginosa H187
[16] = test system: Pseudomonas aeruginosa H188
[17] = test system: Salmonella typhimurium C587
[18] = test system: Salmonella typhimurium C610
[19] = test system: Staphylococcus aureus SAP 0017
[20] = test system: Staphylococcus epidermidis C621
Bacillus subtilis DELTA = test system: Bacillus subtilis DELTA
Candida parapsilosis = test system: Candida parapsilosis
[21] = test system: Escherichia coli DH5alpha
[22] = test system: Pseudomonas aeruginosa PAO1
[23] = test system: Zymomonas mobilis ATCC 10988
[24] = test system: Bacillus subtilis MTCC 2763
[25] = test system: Escherichia coli MTCC 723
[26] = test system: Pseudomonas aeruginosa MTCC 2295
[27] = test system: Staphylococcus aureus ATCC BAA-1720
[28] = test system: Staphylococcus aureus MTCC 3160
[29] = test system: Staphylococcus epidermidis ATCC 51625
[30] = test system: Bacillus subtilis ATCC 6051
[31] = test system: Escherichia coli NEB5alpha

MIC (Bacillus megaterium Bm11): 2 µM (≈ 6.02 µg/mL)
MIC (Candida albicans): 8 µM (≈ 24.1 µg/mL)
MIC (Cryptococcus neoformans): 4 µM (≈ 12 µg/mL)
MIC (Enterococcus faecium): 22.6 µM (≈ 68.1 µg/mL)
MIC [1]: 1 µM (≈ 3.01 µg/mL)
MIC (Escherichia coli ML-35): 0.5 µM (≈ 1.5 µg/mL)
MIC [2]: 2 µM (≈ 6.02 µg/mL)
MIC [3]: 1 µM (≈ 3.01 µg/mL)
MIC [4]: 4 µM (≈ 12 µg/mL)
MIC (Serratia marcescens): 4 µM (≈ 12 µg/mL)
MIC [5]: 8 µM (≈ 24.1 µg/mL)
MIC (Staphylococcus aureus): > 64 µM and 32 µM
MIC [6]: 2 µM (≈ 6.02 µg/mL)
MIC (Streptococcus agalactiae): 1.41 µM (≈ 4.26 µg/mL)
SMILES: CC[C@H](C)[C@H](NC(=O)[C@H](CCCCN)NC(=O)[C@H](CCCN=C(N)N)NC(=O)CNC(=O)[C@H](CC(C)C)NC(=O)[C@H](CO)NC(=O)[C@H](CCCN=C(N)N)NC(=O)[C@H](CC(C)C)NC(=O)CNC(=O)CN)C(=O)N[C@@H](CC(C)C)C(=O)N[C@@H](CCCN=C(N)N)C(=O)N[C@@H](C)C(=O)N[C@@H](Cc1c[nH]c2ccccc12)C(=O)N[C@@H](CCCCN)C(=O)N[C@@H](CCCCN)C(=O)N[C@@H](Cc1ccc(O)cc1)C(=O)NCC(=O)N1CCC[C@H]1C(=O)N[C@@H](CCC(N)=O)C(=O)N[C@@H](C)C(=O)N[C@H](C(=O)N1CCC[C@H]1C(=O)N[C@@H](C)C(=O)N[C@H](C(=O)N[C@@H](CCCN=C(N)N)C(=O)N[C@@H](CCC(N)=O)C(N)=O)[C@@H](C)O)[C@@H](C)O [GGLRSLGRKILRAWKKYGPQATPATRQ]

MIC (Aureobasidium pullulans): 21.9 µM (≈ 31.3 µg/mL)
MIC (Bacillus megaterium): 0.701 µM (≈ 0.999 µg/mL)
MIC [7]: 2.73 µM (≈ 3.9 µg/mL)
MIC [8]: 21.9 µM (≈ 31.3 µg/mL)
MIC [9]: 1.4 µM (≈ 2 µg/mL)
MIC [1]: 5.47 µM (≈ 7.79 µg/mL)
MIC (Micrococcus luteus): 2.73 µM (≈ 3.9 µg/mL)
MIC [10]: 21.9 µM (≈ 31.3 µg/mL)
MIC [11]: 5.47 µM (≈ 7.79 µg/mL)
SMILES: C[C@H](NC(=O)[C@H](CCCN=C(N)N)NC(=O)[C@H](Cc1c[nH]c2ccccc12)NC(=O)[C@H](Cc1c[nH]c2ccccc12)NC(=O)[C@H](Cc1c[nH]c2ccccc12)NC(=O)[C@@H]1CCCN1C(=O)[C@H](CCCN=C(N)N)NC(=O)[C@H](CCCN=C(N)N)NC(=O)CN)C(=O)N[C@@H](CCCN=C(N)N)C(N)=O [GRRPWWWRAR]

MIC [12]: ≥ 2450 µM
MIC (Escherichia coli): 2450 µM (≈ 3000 µg/mL)
MIC (Staphylococcus aureus): 2450 µM (≈ 3000 µg/mL)
SMILES: CC(C)C[C@H](NC(=O)[C@H](CC(=O)O)NC(=O)[C@H](CCCCN)NC(=O)[C@@H](N)Cc1ccccc1)C(=O)NCC(=O)N[C@@H](CCC(=O)O)C(=O)N[C@@H](CCC(=O)O)C(=O)N[C@@H](CC(N)=O)C(=O)N[C@@H](Cc1ccccc1)C(=O)N[C@@H](CCCCN)C(=O)O [FKDLGEENFK]

MIC (Bacillus subtilis C971): 0.692 µM (≈ 2.03 µg/mL)
MIC [13]: 0.692 µM (≈ 2.03 µg/mL)
MIC [14]: 4.39 µM (≈ 12.9 µg/mL)
MIC (Escherichia coli DC2): 0.865 µM (≈ 2.54 µg/mL)
MIC (Escherichia coli UB1005): 1.73 µM (≈ 5.07 µg/mL)
MIC [15]: 1.38 µM (≈ 4.06 µg/mL)
MIC [16]: 3.49 µM (≈ 10.2 µg/mL)
MIC [17]: 4.39 µM (≈ 12.9 µg/mL)
MIC [18]: 1.11 µM (≈ 3.25 µg/mL)
MIC [5]: 2.77 µM (≈ 8.11 µg/mL)
MIC [19]: 1.73 µM (≈ 5.07 µg/mL)
MIC [20]: 1.38 µM (≈ 4.06 µg/mL)
SMILES: CC[C@H](C)[C@H](NC(=O)[C@H](C)NC(=O)[C@H](CCCCN)NC(=O)[C@H](CC(C)C)NC(=O)[C@H](C)NC(=O)[C@@H](NC(=O)[C@H](Cc1cnc[nH]1)NC(=O)[C@H](CC(C)C)NC(=O)[C@@H](NC(=O)[C@@H](NC(=O)[C@H](CCCCN)NC(=O)[C@@H](NC(=O)[C@H](C)NC(=O)CNC(=O)[C@H](CCCCN)NC(=O)[C@H](Cc1ccccc1)NC(=O)[C@@H](NC(=O)[C@H](CCCCN)NC(=O)[C@H](CC(C)C)NC(=O)[C@H](Cc1ccccc1)NC(=O)[C@H](CO)NC(=O)[C@H](CCCCN)NC(=O)[C@H](Cc1c[nH]c2ccccc12)NC(=O)[C@H](CCCCN)NC(C)=O)[C@@H](C)O)C(C)C)[C@@H](C)O)C(C)C)[C@@H](C)O)C(=O)N[C@@H](CO)C(=O)N[C@@H](CO)C(N)=O [KWKSFLKTFKGAVKTVLHTALKAISS]

MIC (Bacillus subtilis DELTA): ≥ 119 µM
MIC (Candida parapsilosis): ≥ 119 µM
MIC [21]: ≥ 119 µM
MIC [22]: 23.7 µM (≈ 41 µg/mL)
MIC [23]: 23.7 µM (≈ 41 µg/mL)
SMILES: CC[C@H](C)[C@H](NC(=O)[C@H](CCCN=C(N)N)NC(=O)[C@H](CCC(N)=O)NC(=O)[C@@H](NC(=O)[C@@H](NC(=O)[C@H](CCCN=C(N)N)NC(=O)[C@H](CCCCN)NC(=O)[C@H](Cc1ccccc1)NC(C)=O)[C@@H](C)CC)C(C)C)C(=O)N[C@@H](CCCCN)C(=O)N[C@@H](CC(=O)O)C(=O)N[C@@H](CC(C)C)C(=O)N[C@@H](CC(C)C)C(=O)N[C@@H](CCCN=C(N)N)C(N)=O [FKRIVQRIKDLLR]

MIC [24]: ≥ 56.2 µM
MIC [25]: ≥ 45 µM
MIC [26]: ≥ 78.7 µM
MIC [27]: 19.7 µM (≈ 17.5 µg/mL)
MIC [28]: 16.9 µM (≈ 15 µg/mL)
MIC [29]: 22.5 µM (≈ 20 µg/mL)
SMILES: NC(=O)[C@H](CCCN=C(N)N)NC(=O)[C@H](Cc1c[nH]c2ccccc12)NC(=O)[C@H](Cc1c[nH]c2ccccc12)NC(=O)[C@H](CCCN=C(N)N)NC(=O)[C@@H](N)Cc1c[nH]c2ccccc12 [WRWWR]

MIC [30]: ≥ 1000 µM
MIC [31]: ≥ 1000 µM
SMILES: CC[C@H](C)[C@H](NC(=O)[C@H](C)NC(=O)CNC(=O)[C@H](CCCCN)NC(=O)[C@H](CCC(=O)O)NC(=O)[C@H](CCC(=O)O)NC(=O)[C@H](CC(=O)O)NC(=O)[C@H](CCC(=O)O)NC(=O)[C@H](CC(N)=O)NC(=O)[C@H](CCCN=C(N)N)NC(=O)CN)C(=O)N[C@H](C(=O)N[C@@H](CCCCN)C(=O)N[C@H](C(=O)N[C@@H](CCCCN)C(=O)NCC(=O)NCC(=O)N[C@@H](CC(C)C)C(=O)O)C(C)C)C(C)C [GRNEDEEKGAIVKVKGGL]
